According to patent publication US11053234B2 (GlaxoSmithKline Intellectual Property Development Limited, priority 2016, dated 2021):
Where a name gives a salt, the structure may show the parent alone.

Each compound was assayed against T1, haematopoietic prostaglandin D synthase (H-PGDS) (Homo sapiens, UniProt O60760) (assay: H-PGDS RapidFire high throughput mass spectrometry assay (conversion of PGH2 to PGD2)). Conditions: 10 nM H-PGDS, PGH2 formed in situ by COX-2 from arachidonic acid; read-out: Potency Range (mean pIC50) (converted).
T1 construct: Full length human H-PGDS cDNA (Invitrogen Ultimate ORF 10H13026) was amplified by PCR; 6-His (N); TEV protease cleavage site (N); made in house; host or cells: E. coli BL21 (DE3*), vector pET22b+
T1 sequence (O60760 whole entry): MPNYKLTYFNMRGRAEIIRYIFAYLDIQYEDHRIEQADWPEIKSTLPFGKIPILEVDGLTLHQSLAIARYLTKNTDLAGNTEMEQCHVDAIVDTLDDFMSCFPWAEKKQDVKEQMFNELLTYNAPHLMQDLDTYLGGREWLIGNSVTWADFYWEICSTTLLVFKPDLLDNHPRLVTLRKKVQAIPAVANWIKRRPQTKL
Assay type: biochemical
In short: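 PGH2 substrate generated in situ by COX-2 (full-length human, FLAG-tagged, Sf9-expressed) from arachidonic acid at ˜10 μM, then converted by full-length human His-tagged H-PGDS (E. coli-expressed). RapidFire SPE–triple quadrupole MS measured PGD2 against PGF2α as substrate surrogate to give percent conversion.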
Work on `CC(C)(O)[C@H]1CC[C@H](NC(=O)[C@H]2C[C@H](Oc3ccc(F)c4cccnc34)C2)CC1` [Example 292, (trans)-3-((5-Fluoroquinolin-8-yl)oxy)-N-((trans)-4-(2-hydroxypropan-2-yl)cyclohexyl)cyclobutanecarboxamide] yielded an IC50 of 100 to 1000 nM. In the case of `CC(C)(O)[C@H]1C[C@H](NC(=O)[C@H]2C[C@H](Oc3cc(F)cc4cccnc34)C2)C1` [Example 293, (trans)-3-((6-Fluoroquinolin-8-yl)oxy)-N-((trans)-3-(2-hydroxypropan-2-yl)cyclobutyl)cyclobutanecarboxamide], the IC50 is reported as 100 to 1000 nM. `O=C(Nc1nccs1)[C@H]1C[C@H](Oc2cc(F)cc3cccnc23)C1` [Example 294, (trans)-3-((6-Fluoroquinolin-8-yl)oxy)-N-(thiazol-2-yl)cyclobutanecarboxamide] gave an IC50 of 10 to 79.4 nM. For `CC(C)(O)[C@H]1CC[C@H](NC(=O)[C@H]2C[C@H](Oc3cc(F)cc4cccnc34)C2)CC1` [Example 295, (trans)-3-((6-Fluoroquinolin-8-yl)oxy)-N-((trans)-4-(2-hydroxypropan-2-yl)cyclohexyl)cyclobutanecarboxamide], the IC50 was 10 to 79.4 nM. For `CC(C)(O)[C@H]1CC[C@H](NC(=O)[C@H]2C[C@H](Oc3cccc4cncnc34)C2)CC1` [Example 296, (trans)-N-((trans)-4-(2-Hydroxypropan-2-yl)cyclohexyl)-3-(quinazolin-8-yloxy)cyclobutanecarboxamide], the IC50 was 100 to 1000 nM. For `O=C(Nc1nccs1)[C@H]1C[C@H](Oc2cccc3[nH]cnc23)C1` [Example 297, (trans)-3-((1H-Benzo[d]imidazol-4-yl)oxy)-N-(thiazol-2-yl)cyclobutanecarboxamide, di-trifluoroacetic acid salt], the IC50 was 100 to 1000 nM. Work on `CC(C)(O)[C@H]1CC[C@H](NC(=O)[C@H]2C[C@H](Oc3cccn4ccnc34)C2)CC1` [Example 298, (trans)-N-((trans)-4-(2-Hydroxypropan-2-yl)cyclohexyl)-3-(imidazo[1,2-a]pyridin-8-yloxy)cyclobutanecarboxamide] yielded an IC50 of 100 to 1000 nM. In the case of `CC(C)(O)[C@H]1CC[C@H](NC(=O)N2CC(Oc3cccc4sncc34)C2)CC1` [Example 299, 3-(Benzo[d]isothiazol-4-yloxy)-N-((trans)-4-(2-hydroxypropan-2-yl)cyclohexyl)azetidine-1-carboxamide], the IC50 is reported as 100 to 1000 nM. `Cc1nc2c(OC3CN(C(=O)N[C@H]4CC[C@H](C(C)(C)O)CC4)C3)cccc2s1` [Example 300, N-((trans)-4-(2-Hydroxypropan-2-yl)cyclohexyl)-3-((2-methylbenzo[d]thiazol-4-yl)oxy)azetidine-1-carboxamide] showed an IC50 of 1260 to 2000 nM. `O=C(Nc1ccn[nH]1)[C@H]1C[C@H](Oc2cccc3scnc23)C1` [Example 301] gave an IC50 of 100 to 1000 nM. `O=C(Nc1cc(C2CC2)n[nH]1)[C@H]1C[C@H](Oc2cccc3scnc23)C1` [Example 302, (trans)-3-(Benzo[d]thiazol-4-yloxy)-N-(3-cyclopropyl-1H-pyrazol-5-yl)cyclobutanecarboxamide] was tested, and the IC50 was 10 to 79.4 nM. For `CC(C)(O)C(=O)N1CCC(NC(=O)[C@H]2C[C@H](Oc3cc(F)cc4scnc34)C2)CC1` [Example 303, (trans)-3-((6-Fluorobenzo[d]thiazol-4-yl)oxy)-N-(1-(2-hydroxy-2-methylpropanoyl)piperidin-4-yl)cyclobutanecarboxamide], the IC50 was 100 to 1000 nM. `C[C@H]1[C@@H](Oc2cccc3scnc23)CN1C(=O)N[C@H]1CC[C@H](C(C)(C)O)CC1` [Example 304, (2S,3S)-3-(Benzo[d]thiazol-4-yloxy)-N-((trans)-4-(2-hydroxypropan-2-yl)cyclohexyl)-2-methylazetidine-1-carboxamide] was tested, and the IC50 was 10 to 79.4 nM. `C[C@@H]1[C@H](Oc2cccc3scnc23)CN1C(=O)N[C@H]1CC[C@H](C(C)(C)O)CC1` [Example 305, (2R,3R)-3-(Benzo[d]thiazol-4-yloxy)-N-((trans)-4-(2-hydroxypropan-2-yl)cyclohexyl)-2-methylazetidine-1-carboxamide] was tested, and the IC50 was 10 to 79.4 nM. For `CS(=O)(=O)c1ccc(NC(=O)N2CC(Oc3cccc4scnc34)C2)cc1` [Example 306, 3-(Benzo[d]thiazol-4-yloxy)-N-(4-(methylsulfonyl)phenyl)azetidine-1-carboxamide], the IC50 was 10 to 79.4 nM. For `Cc1cc(NC(=O)[C@H]2C[C@H](Oc3cccc4scnc34)C2)ncn1` [Example 307, (trans)-3-(Benzo[d]thiazol-4-yloxy)-N-(6-methylpyrimidin-4-yl)cyclobutanecarboxamide], the IC50 was 10 to 79.4 nM. In the case of `CS(=O)(=O)c1ccc(NC(=O)N2CC(Oc3cccc4scnc34)C2)c(F)c1` [Example 308, 3-(Benzo[d]thiazol-4-yloxy)-N-(2-fluoro-4-(methylsulfonyl)phenyl)azetidine-1-carboxamide], the IC50 is reported as 10 to 79.4 nM. Compound `O=C(Nc1cccc(N2CCOCC2)c1)N1CC(Oc2cccc3scnc23)C1` [Example 309, 3-(Benzo[d]thiazol-4-yloxy)-N-(3-morpholinophenyl)azetidine-1-carboxamide] has an IC50 of 100 to 1000 nM. For `O=C(Nc1ccc(N2CCOCC2)cc1)N1CC(Oc2cccc3scnc23)C1` [Example 310, 3-(Benzo[d]thiazol-4-yloxy)-N-(4-morpholinophenyl)azetidine-1-carboxamide], the IC50 was 10 to 79.4 nM. `CS(=O)(=O)c1ccc(NC(=O)N2CC(Oc3cccc4scnc34)C2)nc1` [Example 311, 3-(Benzo[d]thiazol-4-yloxy)-N-(5-(methylsulfonyl)pyridin-2-yl)azetidine-1-carboxamide] was tested, and the IC50 was 10 to 79.4 nM. Work on `O=C(Nc1ccnc(C2CC2)n1)N1CC(Oc2cccc3scnc23)C1` [Example 312, 3-(Benzo[d]thiazol-4-yloxy)-N-(2-cyclopropylpyrimidin-4-yl)azetidine-1-carboxamide] yielded an IC50 of 10 to 79.4 nM. In the case of `O=C(Nc1ccnc(C2CC2)n1)N1CC(Oc2cc(F)cc3scnc23)C1` [Example 313, N-(2-Cyclopropylpyrimidin-4-yl)-3-((6-fluorobenzo[d]thiazol-4-yl)oxy)azetidine-1-carboxamide], the IC50 is reported as 10 to 79.4 nM. Work on `Cn1nc(C2CC2)cc1NC(=O)N1CC(Oc2cccc3scnc23)C1` [Example 314, 3-(Benzo[d]thiazol-4-yloxy)-N-(3-cyclopropyl-1-methyl-1H-pyrazol-5-yl)azetidine-1-carboxamide] yielded an IC50 of 10 to 79.4 nM. `O=C(NC12CC(Nc3ncccn3)(C1)C2)[C@H]1C[C@H](Oc2cccc3scnc23)C1` [Example 315, (trans)-3-(Benzo[d]thiazol-4-yloxy)-N-(3-(pyrimidin-2-ylamino)bicyclo[1.1.1]pentan-1-yl)cyclobutane-1-carboxamide] gave an IC50 of 10 to 79.4 nM. `CC(C)(O)C12CC(NC(=O)N3CC(Oc4cccc5scnc45)C3)(C1)C2` [Example 316, 3-(Benzo[d]thiazol-4-yloxy)-N-(3-(2-hydroxypropan-2-yl)bicyclo[1.1.1]pentan-1-yl)azetidine-1-carboxamide] gave an IC50 of 100 to 1000 nM. In the case of `CC(C)(O)C12C3C4C1C1C2C3C41NC(=O)N1CC(Oc2cccc3scnc23)C1` (stereo not drawn) [Example 317, 3-(Benzo[d]thiazol-4-yloxy)-N-(4-(2-hydroxypropan-2-yl)cuban-1-yl)azetidine-1-carboxamide], the IC50 is reported as 10 to 79.4 nM. `CC(C)(O)C12CC(NC(=O)[C@H]3C[C@H](Oc4cccc5scnc45)C3)(C1)C2` [Example 318, (trans)-3-(Benzo[d]thiazol-4-yloxy)-N-(3-(2-hydroxypropan-2-yl)bicyclo[1.1.1]pentan-1-yl)cyclobutane-1-carboxamide] was tested, and the IC50 was 10 to 79.4 nM. Compound `CCOC(=O)NC12CC(NC(=O)[C@H]3C[C@H](Oc4cccc5scnc45)C3)(C1)C2` [Example 319, Ethyl (3-((trans)-3-(benzo[d]thiazol-4-yloxy)cyclobutane-1-carboxamido)bicyclo[1.1.1]pentan-1-yl)carbamate] has an IC50 of 10 to 79.4 nM. `CC(C)(O)C12C3C4C1C1C2C3C41NC(=O)[C@H]1C[C@H](Oc2cccc3scnc23)C1` (stereo partly drawn) [Example 320, (trans)-3-(Benzo[d]thiazol-4-yloxy)-N-(4-(2-hydroxypropan-2-yl)cuban-1-yl)cyclobutane-1-carboxamide] gave an IC50 of 10 to 79.4 nM. With `Cc1nnc(NC(=O)N2CC(Oc3cccc4scnc34)C2)s1` [Example 321, 3-(Benzo[d]thiazol-4-yloxy)-N-(5-methyl-1,3,4-thiadiazol-2-yl)azetidine-1-carboxamide] the IC50 was 10 to 79.4 nM. `Cn1ccc(NC(=O)N2CC(Oc3cccc4scnc34)C2)n1` [Example 322, 3-(Benzo[d]thiazol-4-yloxy)-N-(1-methyl-1H-pyrazol-3-yl)azetidine-1-carboxamide] was tested, and the IC50 was 100 to 1000 nM. For `COc1cncc(NC(=O)N2CC(Oc3cccc4scnc34)C2)c1` [Example 323, 3-(Benzo[d]thiazol-4-yloxy)-N-(5-methoxypyridin-3-yl)azetidine-1-carboxamide], the IC50 was 10 to 79.4 nM. `Cn1cc(NC(=O)N2CC(Oc3cccc4scnc34)C2)cn1` [Example 324, 3-(Benzo[d]thiazol-4-yloxy)-N-(1-methyl-1H-pyrazol-4-yl)azetidine-1-carboxamide] was tested, and the IC50 was 100 to 1000 nM. `CCn1nnnc1NC(=O)N1CC(Oc2cccc3scnc23)C1` [Example 325, 3-(Benzo[d]thiazol-4-yloxy)-N-(1-ethyl-1H-tetrazol-5-yl)azetidine-1-carboxamide] was tested, and the IC50 was 100 to 1000 nM. With `COC(=O)C12CCC(NC(=O)[C@H]3C[C@H](Oc4cccc5scnc45)C3)(CC1)CC2` [Example 326, Methyl 4-((trans)-3-(benzo[d]thiazol-4-yloxy)cyclobutane-1-carboxamido)bicyclo[2.2.2]octane-1-carboxylate] the IC50 was 10 to 79.4 nM. Work on `COC(=O)C12CCC(NC(=O)N3CC(Oc4cccc5scnc45)C3)(CC1)CC2` [Example 327, Methyl 4-(3-(benzo[d]thiazol-4-yloxy)azetidine-1-carboxamido)bicyclo[2.2.2]octane-1-carboxylate] yielded an IC50 of 10 to 79.4 nM.
